Assays:
[1] = system: guinea pig heart; assay: Effect on coronary flow under hypoxic conditions in the isolated perfused Langendorff guinea pig heart; settings: 1 μM in perfusate, added 10 minutes before hypoxia; averages of 3 hearts
From the text: 3) Effect on Coronary Flow Under Hypoxic Conditions in the Guinea Pig Heart
It is known that an oxygen deficiency in coronary vessels leads to a reflectory dilatation of the vessels in order to compensate the oxygen deficiency. The vascular KATP channel (SUR2B/Kir6.2) plays an important part in this. Its opening leads to hyperpolarization of the cell membrane of the smooth muscle cell and consequently to a reduced calcium influx, resulting in a dilatation of the vessel. Blockade of the vascular KATP channel inhibits the widening of the vessel and thus adjustment of the coronary flow under hypoxic conditions. The test model used for determining the coronary flow was an isolated perfused Langendorff heart of a guinea pig.
Guinea pigs of both sexes were sacrificed by a blow to the head. The heart was quickly removed, and the aorta was canulated. After the canulation, the heart was suspended in the perfusion solution in the Langendorff apparatus, and a latex balloon was inserted into the left ventricle. The coronary flow was recorded using a flow transducer, type E, from Hellige (Freiburg, Germany). The heart was perfused with a constant pressure of 55 mm Hg. Hypoxia was induced by changing the aeration from 95% oxygen/5% carbon dioxide (=normoxia) to 20% oxygen/75% nitrogen/5% carbon dioxide. […]

[2] = molecular target: hSUR1/hKir6.2 (Homo sapiens, UniProt Q09428); assay: Effect on membrane potential of hSUR1/hKir6.2-transfected CHO cells (hypoglycemic effect), DiBAC4 fluorescence, FLIPR; type: cell-based; settings: CHO cells activated with diaxozide, averages of at least 4 experiments
From the text: 2) Effect on hSUR1/hKir6.2-Transfected CHO Cells (Hypoglycemic Effect)
The target organ of these compounds is the β cell of the pancreas, where they block ATP-sensitive potassium channels and bring about, through influencing the electric potential of the cell membrane, a release of the blood sugar-lowering hormone insulin. […] The extent of this depolarization of the cell membrane caused by the compounds according to the invention was investigated on CHO cells which were transfected with the cloned components of human pancreatic ATP-sensitive potassium channels, hSUR1 and hKir6.2, and were activated by pretreatment with diaxozide, an opener of ATP-sensitive potassium channels. The strength of action of a compound on the membrane potential of these transfected and activated CHO cells is a measure of the blood sugar-lowering potential of this compound.
On the day of the measurement, the microtiter plates were washed three times with PBS (physiological buffer solution). 90 μl remained in each well at the last washing step. The cells were then loaded with the fluorescent dye DiBAC4 (Molecular Probes, Portland, Oreg., USA) by adding 90 μl of a 10 micromolar solution of DIBAC4 in PBS and 90 μl of a 400-micromolar solution of diaxozide in PBS to each well. After an incubation time of 30 minutes at 37° C., the microtiter plates were then transferred into a Fluorescent Microtiter Plate Reader (FLIPR; Molecular Devices, Sunnyvale, Calif., USA). The cells were excited using an argon laser (Innova 90; Coherent, Santa Clara, Calif., USA) at a wavelength of 488 nm, and the fluorescence emission was measured using a CCD camera. Measurement of the membrane potential began after 4 minutes by adding 20 μl of a solution of the test substance or of the control solution to each well, measuring the resulting fluorescence emission every 20 seconds over a period of 20 minutes. The data listed below are averages of at least 4 experiments.

[3] = system: guinea pig papillary muscle; assay: Effect on the action potential duration (APD90) on the guinea pig papillary muscle under hypoxia; settings: test substance 2 μmol/l in bath, 60 minutes after addition; 100% = APD90 under hypoxia before substance, 0% = normoxic APD90
From the text: 1) Effect on the Action Potential Duration on the Guinea Pig Papillary Muscle
ATP deficiency states like those observed in the cardiomyocyte during an ischemia lead to a shortening of the action potential duration. They are regarded as one of the causes of so-called reentry arrhythmias, which can cause sudden cardiac death. The opening of ATP-sensitive potassium channels through the lowering of the ATP level is regarded as the cause thereof (ATP=adenosine triphosphate). For measuring the action potential on the guinea pig papillary muscle, a standard microelectrode technique was employed.
Guinea pigs of both sexes were sacrificed by a blow to the head, the heart was removed, and the papillary muscles were dissected out and suspended in an organ bath. The organ bath was rinsed with Ringer's solution (136 mmol/l NaCl, 3.3 mmol/l KCl, 2.5 mmol/l CaCl2, 1.2 mmol/l KH2PO4, 1.1 mmol/l MgSO4, 5.0 mmol/l glucose, 10.0 mmol/l 1-(2-hydroxyethyl)piperazine-4-(2-ethanesulfonic acid) (HEPES), pH adjusted to 7.4 with NaOH) and aerated with 100% oxygen at a temperature of 37° C. The muscle was stimulated via an electrode with square-wave pulses of 1 V and 1 ms duration and a frequency of 1 Hz. The action potential was derived through a glass microelectrode which is inserted intracellularly and filled with 3 mol/l KCl solution, and was recorded. The action potential was amplified using an amplifier from Hugo Sachs (March-Hugstetten, Germany) and stored and evaluated by a computer. The duration of the action potential was determined at a degree of repolarization of 90% (APD90). The shortening of the action potential was induced after an equilibration time of 30 minutes by rinsing the papillary muscle with a hypoxic solution. For this, the glucose was removed, the HEPES buffer replaced by PIPES buffer (piperazine-1,4-bis(2-ethanesulfonic acid)), the pH adjusted to 6.5 and aeration was carried out with 100% nitrogen. This led after a period of 60 minutes to a marked shortening of the APD90. After this time, the test substance was added in the form of a stock solution in propanediol, so that the concentration of the substance in the bath solution was 2 μmol/l. After a further 60 minutes, the re-prolongation of the action potential again recorded. The table below indicates the overall shortening, resulting after hypoxia and addition of test substance, of the APD90 value in percent, i.e. the percentage shortening of the APD90 still remaining after addition of the test substance under hypoxia, where 100% corresponds to the APD90 value under hypoxic conditions before addition of the test substance and 0% corresponds to the APD90 value under normoxic conditions at the start of the experiment.

hSUR1/hKir6.2, sequence (Q09428 whole entry): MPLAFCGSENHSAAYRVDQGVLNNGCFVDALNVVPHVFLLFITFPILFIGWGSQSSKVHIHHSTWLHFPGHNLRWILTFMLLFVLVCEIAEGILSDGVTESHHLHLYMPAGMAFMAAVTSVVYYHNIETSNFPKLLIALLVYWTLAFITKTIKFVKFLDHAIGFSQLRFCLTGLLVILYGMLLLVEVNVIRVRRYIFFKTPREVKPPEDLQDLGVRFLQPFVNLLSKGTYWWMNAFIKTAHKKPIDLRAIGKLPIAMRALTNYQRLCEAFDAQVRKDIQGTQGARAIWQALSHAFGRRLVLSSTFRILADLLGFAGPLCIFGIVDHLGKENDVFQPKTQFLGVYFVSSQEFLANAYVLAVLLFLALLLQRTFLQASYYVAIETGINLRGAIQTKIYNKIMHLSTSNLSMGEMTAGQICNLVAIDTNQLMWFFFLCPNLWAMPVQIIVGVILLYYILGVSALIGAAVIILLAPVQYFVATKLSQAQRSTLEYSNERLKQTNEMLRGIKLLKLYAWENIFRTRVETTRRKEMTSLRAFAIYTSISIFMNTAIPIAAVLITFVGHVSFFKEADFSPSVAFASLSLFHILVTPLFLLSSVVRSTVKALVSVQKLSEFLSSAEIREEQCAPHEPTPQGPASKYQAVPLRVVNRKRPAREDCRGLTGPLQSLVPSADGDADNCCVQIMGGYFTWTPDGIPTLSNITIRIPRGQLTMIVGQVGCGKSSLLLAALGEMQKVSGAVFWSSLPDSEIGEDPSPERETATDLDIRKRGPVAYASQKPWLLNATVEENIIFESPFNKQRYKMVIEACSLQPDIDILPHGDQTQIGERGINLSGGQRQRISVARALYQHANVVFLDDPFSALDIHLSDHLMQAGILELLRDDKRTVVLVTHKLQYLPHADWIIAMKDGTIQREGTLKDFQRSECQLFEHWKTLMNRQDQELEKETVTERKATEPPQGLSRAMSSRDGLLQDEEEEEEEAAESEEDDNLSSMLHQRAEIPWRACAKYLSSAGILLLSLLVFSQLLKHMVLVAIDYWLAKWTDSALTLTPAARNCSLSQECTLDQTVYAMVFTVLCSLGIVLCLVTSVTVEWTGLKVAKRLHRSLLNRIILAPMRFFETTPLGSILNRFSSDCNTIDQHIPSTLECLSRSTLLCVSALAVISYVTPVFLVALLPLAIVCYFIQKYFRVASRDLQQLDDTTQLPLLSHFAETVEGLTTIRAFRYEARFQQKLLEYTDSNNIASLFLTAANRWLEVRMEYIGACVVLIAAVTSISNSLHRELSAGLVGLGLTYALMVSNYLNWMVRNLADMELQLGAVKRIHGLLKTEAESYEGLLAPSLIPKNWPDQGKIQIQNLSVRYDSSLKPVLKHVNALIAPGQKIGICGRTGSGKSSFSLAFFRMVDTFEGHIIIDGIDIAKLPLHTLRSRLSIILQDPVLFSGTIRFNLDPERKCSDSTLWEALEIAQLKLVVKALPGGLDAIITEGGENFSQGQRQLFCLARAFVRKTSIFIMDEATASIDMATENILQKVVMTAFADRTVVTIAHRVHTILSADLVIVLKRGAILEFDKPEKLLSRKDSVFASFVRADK
hSUR1/hKir6.2, sequence (Q14654 whole entry partner): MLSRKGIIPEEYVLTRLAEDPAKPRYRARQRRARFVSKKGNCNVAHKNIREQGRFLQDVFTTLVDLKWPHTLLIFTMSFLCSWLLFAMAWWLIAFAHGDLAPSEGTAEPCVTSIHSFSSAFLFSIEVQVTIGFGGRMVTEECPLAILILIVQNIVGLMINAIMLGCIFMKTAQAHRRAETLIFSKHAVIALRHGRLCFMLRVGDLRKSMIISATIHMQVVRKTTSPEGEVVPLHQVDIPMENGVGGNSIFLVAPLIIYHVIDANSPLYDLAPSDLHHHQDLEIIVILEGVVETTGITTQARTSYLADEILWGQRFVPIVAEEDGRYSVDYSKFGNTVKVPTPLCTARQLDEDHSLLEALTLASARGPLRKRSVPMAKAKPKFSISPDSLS

| SMILES | Hypoxic coronary flow compared with the control in percent [1] [%] | hSUR1/hKir6.2 blockade at 0.1 μM [2] [%] | hSUR1/hKir6.2 blockade at 1 μM [2] [%] | hSUR1/hKir6.2 blockade at 10 μM [2] [%] | Remaining shortening of the APD90 under hypoxia in percent [3] [%] | melting point [°C] |
| --- | --- | --- | --- | --- | --- | --- |
| COc1ccc(Cl)cc1C(=O)NCCc1ccc(S(=O)(=O)NC(=O)NC2CCCCC2)cc1 [Comparison (1), glibenclamide, reference compound] | 35 |  |  |  |  |  |
| CNC(=S)NS(=O)(=O)N1CCC(CCNC(=O)c2cc(Cl)ccc2OC)CC1 [Example 1, 5-Chloro-2-methoxy-N-(2-(1-(3-methylthioureidosulfonyl)piperidin-4-yl)ethyl)benzamide] |  | <1 | 2 | 41 | 80 |  |
| CCNC(=S)NS(=O)(=O)N1CCC(CCNC(=O)c2cc(Cl)ccc2OC)CC1 [Example 2, 5-Chloro-2-methoxy-N-(2-(1-(3-ethylthioureidosulfonyl)piperidin-4-yl)ethyl)benzamide] |  | <1 | 4 | 67 | 82 |  |
| CCCNC(=S)NS(=O)(=O)N1CCC(CCNC(=O)c2cc(Cl)ccc2OC)CC1 [Example 3, 5-Chloro-2-methoxy-N-(2-(1-(3-propylthioureidosulfonyl)piperidin-4-yl)ethyl)benzamide] |  | 5 | 55 | 89 | 67 |  |
| COc1ccc(Cl)cc1C(=O)NCCC1CCN(S(=O)(=O)NC(=S)NC(C)C)CC1 [Example 4, 5-Chloro-2-methoxy-N-(2-(1-(3-isopropylthioureidosulfonyl)piperidin-4-yl)ethyl)benzamide] | 61 | 2 | 53 | 89 | 54 |  |
| COc1ccc(Cl)cc1C(=O)NCCC1CCN(S(=O)(=O)NC(=S)NC2CC2)CC1 [Example 5, 5-Chloro-2-methoxy-N-(2-(1-(3-cyclopropylthioureidosulfonyl)piperidin-4-yl)ethyl)benzamide] |  |  |  |  |  | 144 to 145 |
| COc1ccc(Cl)cc1C(=O)NCCC1CCN(S(=O)(=O)NC(=S)NC2CCCCC2)CC1 [Example 6, 5-Chloro-2-methoxy-N-(2-(1-(3-cyclohexylthioureidosulfonyl)piperidin-4-yl)ethyl)benzamide] |  |  |  |  |  | 146 to 148 |
| CNC(=O)NS(=O)(=O)N1CCC(CCNC(=O)c2cc(Cl)ccc2OC)CC1 [Example 7, 5-Chloro-2-methoxy-N-(2-(1-(3-methylureidosulfonyl)piperidin-4-yl)ethyl)benzamide] |  | <1 | 15 | 60 | 68 |  |
| CCNC(=O)NS(=O)(=O)N1CCC(CCNC(=O)c2cc(Cl)ccc2OC)CC1 [Example 8, 5-Chloro-2-methoxy-N-(2-(1-(3-ethylureidosulfonyl)piperidin-4-yl)ethyl)benzamide] |  | 8 | 55 | 102 | 54 |  |
| CCCNC(=O)NS(=O)(=O)N1CCC(CCNC(=O)c2cc(Cl)ccc2OC)CC1 [Example 9, 5-Chloro-2-methoxy-N-(2-(1-(3-propylureidosulfonyl)piperidin-4-yl)ethyl)benzamide] |  |  |  |  |  | 140 to 142 |
| COc1ccc(Cl)cc1C(=O)NCCC1CCN(S(=O)(=O)NC(=O)NC2CC2)CC1 [Example 11, 5-Chloro-2-methoxy-N-(2-(1-(3-cyclopropylureidosulfonyl)piperidin-4-yl)ethyl)benzamide] |  |  |  |  |  | 138 to 139 |
